Residues, ends and D or L forms follow the SMILES beside them.
Test: Synthetic musclin peptide plasma elimination half-life and volume of distribution (NMR of plasma after jugular vein injection)
Format: in vivo, mouse
Procedure: The musclin [^13C,^15N-A26-V27]-labeled peptide sequence used was as follows: […], corresponding to amino acids 80–112; GenBank accession no. AAS87598.1 (Bio-synthesis, Inc. Lewisville, TX, USA). A peptide was synthesized with 98% purity, counter-ion exchange (TFA to Cl), and pH adjustment (Bio-synthesis, Inc. Lewisville, TX, USA).
For infusion, 1.7 mg of the chemically synthesized [^13C,^15N-A26-V27]-labeled musclin peptide was dissolved in 300 µL of PBS. This musclin solution was injected into the jugular vein. A 100 µL blood sample was then drawn from the carotid artery at 1, 3, 5, 7, 10, and 15 min after the peptide infusion. Blood was mixed with 5 µL of 10% NaEDTA and 1 µL of peptidase inhibitor cocktail (Sigma, St. Louis, MI, USA) and kept on ice, then centrifuged at 4 °C for 45 min at 14,000 rpm. Plasma was removed and stored at −80 °C for NMR studies.
All NMR spectra were acquired at 5 °C on a Bruker Avance II 800 MHz NMR spectrometer equipped with a TCI cryoprobe. 100 µL of plasma (see above) was added 150 µL NMR buffer containing 50 mM sodium phosphate, pH 7.1 with a final volume of 250 µL in 8.5% D2O/91.5% H2O. This sample was then transferred to a Shigemi NMR tube for NMR studies. One-dimensional (1D) ^1H, two-dimensional (2D) ^15N/^1H-heteronuclear single-quantum correlation (HSQC), 2D ^13C/^1H-HSQC with constant time experiment (HSQC-CT), and 2D ^15N/^1H-slice of the three-dimensional (3D) HNCO experiment were acquired for each blood sample drawn at different times after peptide infusion. The collected NMR data were processed using NMRPipe and analyzed using NMRView. The musclin peptide concentration present in these blood samples was calibrated by using a known amount of chemically synthesized [^13C,^15N-A26-V27]-labeled musclin peptide. The peak intensity of these acquired NMR spectra was measured and fitted to the equation for half-life in exponential decay using GraphPad Prism (GraphPad Software version 9.4.1).

- Cl, clearance = Ke × Vd (calculated for a mouse of 27 g): 1.71 mL/min
- C0 (in vivo, iv, mouse, 1.7 mg i.v. (jugular vein), NMR calibrated with known amount of labeled peptide, read-out: initial plasma concentration): 36 µM
- half-life (in vivo, iv, mouse, 1.7 mg in 300 µL PBS injected into jugular vein, carotid artery blood at 1, 3, 5, 7, 10, 15 min, plasma NMR at 5 °C, HNCO (2D) peak intensities fitted to exponential decay, read-out: plasma elimination half-life (t ½)): 4.6 min
- volume of distribution (Vd) per g body weight (mouse of 31 g, Vd = administered dose/initial concentration, 1.7 mg i.v. (jugular vein)): 0.419 ml/g of BW
- Ke, elimination rate = 0.693/T1/2 (mouse, i.v. (jugular vein)): 0.151 min⁻¹
- Vd (mouse, in vivo, iv, for mice of 31 g, 1.7 mg/0.131 mg/mL): 0.013 L
SMILES: CC(C)C[C@H](NC(=O)[C@H](CCCNC(=N)N)NC(=O)[C@H](CC(=O)O)NC(=O)[C@H](CC(C)C)NC(=O)[C@@H]1CCCN1C(=O)[C@H](CO)NC(=O)CNC(=O)[C@H](Cc1ccccc1)NC(=O)CNC(=O)[C@H](CO)NC(=O)[C@H](Cc1ccccc1)NC(=O)[C@@H](N)CO)C(=O)N[C@@H](CO)C(=O)N[C@@H](C)C(=O)NCC(=O)N[C@@H](CO)C(=O)N[C@H](C(=O)N[C@@H](CCC(=O)O)C(=O)N[C@@H](Cc1c[nH]cn1)C(=O)N[C@@H](CCCNC(=N)N)C(=O)NCC(=O)N[C@@H](CCCCN)C(=O)N[C@@H](CCC(N)=O)C(=O)N[C@@H](CCCNC(=N)N)C(=O)N[C@@H](CCCCN)C(=O)N[C@@H](C)C(=O)N[C@H](C(=O)N[C@@H](CC(=O)O)C(=O)N[C@@H](Cc1c[nH]cn1)C(=O)N[C@@H](CO)C(=O)N[C@@H](CCCCN)C(=O)N[C@@H](CCCCN)C(=O)N[C@@H](CCCNC(=N)N)C(=O)O)C(C)C)C(C)C (H-SFSGFGSPLDRLSAGSVEHRGKQRKAVDHSKKR-OH; N-terminus and C-terminus assumed)
